{
  "source": "patent US20060246436A1",
  "about": "(priority 2002, published 2006)",
  "key": {"[1]": {"test_system": "peripheral blood cells positive for Ph chromosome", "details": "of 18 CML patients; after five months of imatinib treatment", "description": "The remaining four were reserved to test the predictive scoring system later. Of the 22, two “learning” cases (the cases used for the construction of the prediction system described later) were in blast crisis phase and two “test” cases (the cases used for testing the correctness of the prediction system described later) were in accelerated phase."}, "[2]": {"test_system": "Ph chromosome-positive leukemia cells", "details": "cited from earlier work"}},
  "data": [
    {"smiles": "Cc1ccc(NC(=O)c2ccc(CN3CCN(C)CC3)cc2)cc1Nc1nccc(-c2cccnc2)n1", "note": "[imatinib, 4-(4-methylpiperazin-1-ylmethyl)-N-[4-methyl-3-(4-pyridin-3-ylpyrimidin-2-ylamino)phenyl]benzamide]", "values": [
      {"measurement": "patients with more than 65% of cells still positive for the Ph chromosome, non-responders", "setting": "[1]", "result": "six"},
      {"measurement": "adverse effects", "setting": "[2]; CML patients", "result": "without severe adverse effects"},
      {"measurement": "patients in whom Ph chromosome-positive leukemia cells are completely or partially reduced", "setting": "[2]; CML patients", "result": "more than 60%"},
      {"measurement": "CML patients induced into hematological complete remission", "setting": "[2]", "result": "around 90%"}
    ]}
  ]
}
